Data from patent publication US12465582B2, “(S)-2-amino-6-((3-aminopropyl)amino)hexanoic acid (APL) for use in the treatment of non-alcoholic steatohepatitis (NASH), liver inflammation, hepatocellular ballooning, liver fibrosis and steatosis” (Temple University—Of The Commonwealth System Of Higher …, priority 2020, dated 2025).

Tested on: Zucker (fa/fa) obese rats
Assay: Hepatic fibrosis: H&E and Mason trichrome liver histology in Zucker rat NASH model
Assay type: in vivo
Details: 100 mg/kg APL p.o. b.i.d., 78 days
From the text: Zucker (fa/fa) obese rats and Zucker (Fa/fa) lean rats (7-week old male animals obtained from Charles Rivers Laboratories, Wilmington, MA, USA) were maintained in individual cages (1 rat per cage to encourage sedentary activity) and had free access to standard rodent chow (Cat #5053 obtained from Labdiet, Saint Louis, MO) and water for (filtered and packed using a Hydrapak system) for 7 days until the start of the experiment. Zucker (fa/fa) obese rats were randomly assigned to two groups: 1) vehicle p.o.b.i.d. (oral administration, twice a day) for 78 days; and 2) 100 milligram per kilogram (mg/kg) body weight APL (p.o.b.i.d.) for 78 days. Zucker (Fa/fa) lean rats served as control. The APL dosage was 100 mg/kg/day. Animals were fed ad libitum. The animals were humanely euthanized, and the livers were removed for histological analysis. Liver samples in formalin were allowed to fix for 48 hours, and processed into FFPE blocks after fixations. Slides were stained with hematoxylin and eosin (H&E) and Mason trichrome staining.

## NCCCNCCCC[C@H](N)C(=O)O [APL, (S)-2-amino-6-((3-aminopropyl)amino)hexanoic acid]
  liver morphology, H&E (FIG. 8A): preserve the normal morphology of the liver
Vs multiple collagen fibers with vehicle
  liver collagen fibers, Mason trichrome blue staining (FIG. 8B/8C): minimum blue staining
